Experiments:
[1] = tested on: A. baumannii ATCC 19606; test: MIC, A. baumannii ATCC 19606; type: cell-based; conditions: Acinetobacter baumannii, ATCC19606; Example 112
Protocol: (§1) The MIC assays are carried out in 150 μL volume in duplicate in 96-well clear flat-bottom plates. The bacterial suspension from an overnight culture growth in appropriate medium is added to a solution of test compound in 4% DMSO in water. Final bacterial inoculum is approximately 10^5-10^6 CFU/well. The percent growth of the bacteria in test wells relative to that observed for a well containing no compound is determined by measuring absorbance at 595 nm (A595) after 24 h. The MIC is determined as a range of single compound where the complete inhibition of growth is observed at the higher concentration and cells are viable at the lower concentrations. Both ampicillin and tetracycline are used as antibiotic-positive controls in each screening assay for S. pyogenes, E. coli imp-, E. coli, S. aureus, E. faecalis, K. pneumoniae and P. vulgaris. Ciprofloxacin is used as an antibiotic positive control in each screening assay for P. aeruginosa.
(§2) The following compound was prepared using methods illustrated in the previous examples. The compound was also examined in standard bacterial assays against E. Coli, S. Aureus, P. aurginosa, K. pneumoniae and A. baumannii to determine activities. Each of the bacterial cultures that are available from ATCC (www.atcc.org) is identified by its ATCC number.

[2] = tested on: E. coli ATCC 25922; test: MIC, E. coli ATCC 25922; type: cell-based
Protocol: (§3) The MIC assays are carried out in 150 μL volume in duplicate in 96-well clear flat-bottom plates. The bacterial suspension from an overnight culture growth in appropriate medium is added to a solution of test compound in 4% DMSO in water. Final bacterial inoculum is approximately 10^5-10^6 CFU/well. […] Both ampicillin and tetracycline are used as antibiotic-positive controls in each screening assay for S. pyogenes, E. coli imp-, E. coli, S. aureus, E. faecalis, K. pneumoniae and P. vulgaris. Ciprofloxacin is used as an antibiotic positive control in each screening assay for P. aeruginosa.
(§4) The following compounds were prepared using methods illustrated in the previous examples. The compounds were also examined in standard bacterial assays against E. Coli, S. Aureus, P. aurginosa, K. pneumoniae, P. vulgaris, and A. baumannii to determine activities. Each of the bacterial cultures that are available from ATCC (www.atcc.org) is identified by its ATCC number. A. baumannii is gentamicin sensitive Acinetobacter baumannii #2 from Walter Reed.

[3] = tested on: P. aurginosa ATCC 27853; test: MIC, P. aurginosa ATCC 27853; type: cell-based; conditions: Example 112
Protocol: as §1, §2

[4] = tested on: K. pneumoniae ATCC 10031; test: MIC, K. pneumoniae ATCC 10031; type: cell-based
Protocol: as §3, §4

[5] = tested on: S. aureus ATCC 29213; test: MIC, S. aureus ATCC 29213; type: cell-based; conditions: Staphylococcus aureus, ATCC29213; Example 112
Protocol: as §1, §2

[6] = tested on: Staphylococcus aureus (Smith Strain ATCC 13709); test: Staphylococcus aureus mouse protection assay; type: in vivo, mice; conditions: Staph Conc. 10^6, 10% Mucin, the 13th table
[7] = tested on: gentamicin sensitive Acinetobacter baumannii #2 from Walter Reed; test: MIC, A. baumannii WReed 2; type: cell-based
Protocol: as §3, §4

[8] = tested on: E. coli S30 bacterial extract (pBestLuc firefly luciferase reporter); test: Coupled bacterial transcription/translation assay; type: biochemical; conditions: Example 108; read-out: Trans/Trans IC50
Procedure, shortened: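 Coupled transcription/translation of firefly luciferase from 1 μg pBestLuc (tac promoter) in E. coli S30 extract, with or without test compound. Reaction 35 min at 37° C., then functional luciferase detected by luminescence.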

[9] = molecular target: 18S ribosomal subunit RNA target; test: Mass spectrometry based binding assay (FTICR), 18S; conditions: Example 108
Procedure, shortened: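 Ligands at varying concentrations were mixed with 2.5 or 5 μM RNA in 100 mM ammonium acetate with 33% isopropyl alcohol, then analysed by negative-mode ESI-FTICR. Complex/free RNA ion ratios plotted against ligand concentration were fitted to a second- or higher-order binding polynomial to give KD.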

[10] = tested on: P. vulgaris ATCC 8427; test: MIC, P. vulgaris ATCC 8427; type: cell-based
Protocol: as §3, §4

[11] = tested on: E. Coli; test: MIC, E. Coli; type: cell-based; conditions: Example 108
Procedure, shortened: (§5)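 Broth microdilution in duplicate, 150 μL: overnight-culture bacteria were added to compound in 4% DMSO in water. Final inoculum was about 10^5–10^6 CFU/well.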

[12] = tested on: P. aurginosa ATCC 29248; test: MIC, P. aurginosa ATCC 29248; type: cell-based
Protocol: as §3, §4

[13] = tested on: P. aurginosa ATCC 25416; test: MIC, P. aurginosa ATCC 25416; type: cell-based
Protocol: as §3, §4

[14] = molecular target: 16S ribosomal subunit RNA target; test: Mass spectrometry based binding assay (FTICR), 16S; conditions: Example 108
Procedure, shortened: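 Binding to the 16S ribosomal subunit RNA target was measured by FTICR mass spectrometry. Ligands or ligand mixtures were prepared at several concentrations in 10 μL of aqueous 100 mM ammonium acetate buffer with 33% isopropyl alcohol. Samples were infused at 1 μL/min into a negative-mode electrospray source, and ions were held 1 sec in an RF-only hexapole. Complex/free RNA ratios versus ligand concentration were fitted to a binding polynomial to obtain KD.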

[15] = tested on: S. aureus ATCC 13709; test: MIC, S. aureus ATCC 13709; type: cell-based
Protocol: as §3, §4

[16] = tested on: S. Aureus; test: MIC, S. Aureus; type: cell-based; conditions: Example 108
Procedure, shortened: as §5

NCC[C@H](O)C(=O)N[C@@H]1C[C@H](N)[C@@H](O[C@H]2O[C@H](CN)CC[C@H]2N)[C@H](O[C@@H]2O[C@H](CO)[C@@H](O[C@H]3O[C@@H](CN)[C@@H](O)[C@H](O)[C@H]3N)[C@H]2OCCNCCc2ccccc2)[C@H]1O [Compound 87, N-1-haba-2″-O-phenylethylaminoethyl-3′,4′-dideoxy neomycin]
MIC [1]: < 16 µM
MIC ([2]; Escherichia coli, ATCC25922, Example 112): < 16 µM
MIC [3]: < 16 µM
MIC ([4]; Klebsiella pneumoniae, ATCC10031, Example 112): < 16 µM
MIC [5]: < 16 µM

NCC1OC(OC2C(CO)OC(OC3C(O)C(N)CC(N)C3OC3OC(CNCCc4ccccc4)C(O)C(O)C3N)C2O)C(N)C(O)C1O (centres unmarked) [Compound 15j]
# Dead mice/Total mice in group ([6]; 0.5 mg/kg subcutaneously): 7/10
# Dead mice/Total mice in group ([6]; 1 mg/kg subcutaneously): 0/10
# Dead mice/Total mice in group ([6]; 2 mg/kg subcutaneously): 0/10
# Dead mice/Total mice in group ([6]; 4.5 mg/kg subcutaneously): 0/10
# Dead mice/Total mice in group ([6]; 9 mg/kg subcutaneously): 0/10
# Dead mice/Total mice in group ([6]; 18 mg/kg subcutaneously): 0/10
# Dead mice/Total mice in group ([6]; 37 mg/kg subcutaneously): 0/10
# Dead mice/Total mice in group ([6]; 75 mg/kg subcutaneously one and 3 hour after infection, intraperitoneal): 0/10
MIC A. baumannii WReed 2 ([7]; Example 110): 1.3 to 2.5 µM
MIC A. baumannii WReed 2 ([7]; Example 111): 20 to 40 µM
MIC E. coli ATCC 25922 ([2]; Example 110): 1.3 to 2.5 µM
MIC E. coli ATCC 25922 ([2]; Example 111): 1.3 to 2.5 µM
IC50 [8]: 200 nM
Kd [9]: 2200 nM
MIC P. vulgaris ATCC 8427 ([10]; Example 110): 1.3 to 2.5 µM
MIC P. vulgaris ATCC 8427 ([10]; Example 111): >40 µM
MIC E. Coli. [11]: 1.3 to 2.5 µM
MIC P. aurginosa ATCC 29248 ([12]; Example 110): >40 µM
MIC P. aurginosa ATCC 29248 ([12]; Example 111): >40 µM
MIC P. aurginosa ATCC 25416 ([13]; Example 110): >40 µM
MIC P. aurginosa ATCC 25416 ([13]; Example 111): >40 µM
MIC K. pneumoniae ATCC 10031 ([4]; Example 110): <0.6 µM
MIC K. pneumoniae ATCC 10031 ([4]; Example 111): 0.6 to 1.3 µM
Kd [14]: 500 nM
MIC S. aureus ATCC 13709 ([15]; Example 110): 10 to 20 µM
MIC S. aureus ATCC 13709 ([15]; Example 111): 0.3 to 0.6 µM
MIC S. Aureus [16]: 0.3 to 0.6 µM

From patent publication US8569264B2, “Antibacterial 4,5-substituted aminoglycoside analogs having multiple substituents” (ISIS Pharmaceuticals, Inc., priority 2005, dated 2013)
